In brackets after ≈: the same amount, converted by molar mass. Activity calls are given as the source filed them. No cut-off for these calls is given here.
What was measured:
[1] = test system: Mycolicibacterium smegmatis; test: Antitubercular activity against Mycobacterium smegmatis mc2155 ATCC 700084 cultured in GAST media incubated for 24 hrs by resazurin microtiter assay; type: functional
[2] = test system: Mycolicibacterium smegmatis; test: Antitubercular activity against Mycobacterium smegmatis mc2155 ATCC 700084 cultured in GAST-Fe media incubated for 24 hrs by resazurin microtiter assay; type: functional
Mycolicibacterium aurum [3] = test: Antimycobacterial activity against Mycobacterium aurum ATCC 10437 cultured in GAST media incubated for 72 hrs by resazurin microtiter assay; type: functional
Mycolicibacterium aurum [4] = test: Antimycobacterial activity against Mycobacterium aurum ATCC 10437 cultured in GAST-Fe media incubated for 72 hrs by resazurin microtiter assay; type: functional
[5] = test system: Mycolicibacterium smegmatis; test: Bacteriostatic activity against Mycobacterium smegmatis mc2155 ATCC 700084 assessed as inhibition of bacterial growth preincubated for 48 hrs followed by agar surface scraped and transfer to GAST medium and measured after 5 days by HT-SPOTi assay; type: functional, organism-based; settings: time 7.0 day
[6] = test system: Mycolicibacterium smegmatis; test: Antibacterial activity against Mycobacterium smegmatis mc2155 ATCC 700084 cultured in iron supplemented medium assessed as inhibition of siderophore production at 4 ug/ml measured after 3 hrs by CAS assay relative to control; type: functional; design: scale not given: the % may be the effect or the level left; settings: dose 4 µg/ml
[7] = molecular target: T1, Salicyl-AMP ligase / salicyl-S-ArCP synthetase (Mycobacterium tuberculosis) (UniProt P71716); test: Binding affinity to Mycobacterium tuberculosis MbtA assessed as change in thermal stability at 100 uM incubated for 1 hr in presence of ATP at pH 7.5 by thermo fluorometer analysis
T1 sequence (whole entry): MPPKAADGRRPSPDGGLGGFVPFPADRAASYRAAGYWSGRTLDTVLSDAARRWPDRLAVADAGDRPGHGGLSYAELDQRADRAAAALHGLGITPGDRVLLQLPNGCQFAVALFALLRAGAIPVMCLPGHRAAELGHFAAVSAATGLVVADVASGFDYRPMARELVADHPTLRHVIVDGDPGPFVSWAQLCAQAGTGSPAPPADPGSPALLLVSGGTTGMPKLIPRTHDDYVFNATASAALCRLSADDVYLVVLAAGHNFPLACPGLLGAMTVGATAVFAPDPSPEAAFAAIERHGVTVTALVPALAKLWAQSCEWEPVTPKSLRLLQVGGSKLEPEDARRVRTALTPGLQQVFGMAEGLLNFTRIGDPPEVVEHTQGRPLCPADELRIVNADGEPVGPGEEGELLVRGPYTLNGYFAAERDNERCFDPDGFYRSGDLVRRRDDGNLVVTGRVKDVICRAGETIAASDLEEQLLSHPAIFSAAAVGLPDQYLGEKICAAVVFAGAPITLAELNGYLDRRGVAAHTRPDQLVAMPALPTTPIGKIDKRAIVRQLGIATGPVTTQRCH

[8] = molecular target: T1, Salicyl-AMP ligase / salicyl-S-ArCP synthetase (Mycobacterium tuberculosis); test: Binding affinity to Mycobacterium tuberculosis MbtA assessed as change in thermal stability at 100 uM incubated for 1 hr in presence of ATP at pH 8.5 by thermo fluorometer analysis
[9] = test system: Mycolicibacterium smegmatis; test: Antibacterial activity against Mycobacterium smegmatic mc2155 ATCC 700084 assessed as inhibition of efflux pump using ethidium bromide as substrate measured every min for 45 mins; type: functional, organism-based
RAW264.7 = test: Cytotoxicity against mouse RAW264.7 cell assessed as inhibition of growth measured for 48 hrs by resazurin microtiter assay; type: functional
THP-1 = test: Cytotoxicity against human THP-1 cells assessed as inhibition of growth measured for 48 hrs by resazurin microtiter assay; type: functional
[10] = Selectivity index, ratio of GIC90 for cytotoxicity against mouse RAW264.7 cells to MIC90 for Antitubercular activity against Mycobacterium smegmatis mc2155 ATCC 700084; type: toxicity, cell-based; settings: read-out: Selectivity Index
[11] = Selectivity index, ratio of GIC90 for cytotoxicity against human THP-1 cells to MIC90 for Antitubercular activity against Mycobacterium smegmatis mc2155 ATCC 700084; type: toxicity, cell-based; settings: read-out: Selectivity Index
[12] = Selectivity index, ratio of GIC90 for Cytotoxicity against mouse RAW264.7 cells MIC90 for Antitubercular activity against Mycobacterium aurum ATCC 10437; type: toxicity, cell-based; settings: read-out: Selectivity Index
[13] = Selectivity index, ratio of GIC90 for Cytotoxicity against human THP-1 cells to MIC90 for Antitubercular activity against Mycobacterium aurum ATCC 10437; type: toxicity, cell-based; settings: read-out: Selectivity Index
[14] = Selectivity index, ratio of GIC90 for Cytotoxicity against mouse RAW264.7 cells to MIC90 for Antitubercular activity against Mycobacterium bovis BCG ATCC 35734; type: toxicity, cell-based; settings: read-out: Selectivity Index
[15] = Selectivity index, ratio of GIC90 for Cytotoxicity against […] human THP-1 cells to MIC90 for Antitubercular activity against Mycobacterium bovis BCG ATCC 35734; type: toxicity, cell-based; settings: read-out: Selectivity Index
Mycolicibacterium aurum [16] = test: Antimycobacterial activity against Mycobacterium aurum ATCC 10437 infected in RAW264.7 cells assessed as inhibition of growth at 16 ug/ml incubated for 72 hrs by SPOTi assay; type: functional; design: scale not given: the % may be the effect or the level left; settings: dose 16 µg/ml
[17] = test system: Mycolicibacterium smegmatis; test: Synergistic antibacterial activity against Mycobacterium smegmatis mc2155 ATCC 700084 assessed as fractional inhibitory concentration in presence of isoniazid by checker board assay; type: functional
[18] = test system: Mycolicibacterium smegmatis; test: Synergistic antibacterial activity against Mycobacterium smegmatis mc2155 ATCC 700084 assessed as fractional inhibitory concentration in presence of rifampicin by checker board assay; type: functional
[19] = Cmax in Sprague-Dawley rat at 1 mg/kg, iv; type: ADME, organism-based; design: route intravenous, dose 1 mg/kg; settings: in vivo
[20] = AUClast in Sprague-Dawley rat at 1 mg/kg, iv; type: ADME, organism-based; design: route intravenous, time 0 - last, dose 1 mg/kg; settings: in vivo
[21] = AUCinfinity in Sprague-Dawley rat at 1 mg/kg, iv; type: ADME, organism-based; design: time infinity, route intravenous, dose 1 mg/kg; settings: in vivo
[22] = Elimination half life in Sprague-Dawley rat at 1 mg/kg, iv; type: ADME, organism-based; settings: in vivo, read-out: beta t1/2 (converted)
[23] = Tlast in Sprague-Dawley rat at 1 mg/kg, iv; type: ADME, organism-based; settings: in vivo
[24] = Volume of distribution at steady state in Sprague-Dawley rat at 1 mg/kg, iv; type: ADME, organism-based; settings: in vivo
[25] = Hepatic clearance in Sprague-Dawley rat at 1 mg/kg, iv; type: ADME, organism-based, Liver; settings: in vivo
[26] = Cmax in Sprague-Dawley rat at 5 mg/kg, po; type: ADME, organism-based; design: route oral, dose 5 mg/kg; settings: in vivo
[27] = AUClast in Sprague-Dawley rat at 5 mg/kg, po; type: ADME, organism-based; design: time 0 - last, route oral, dose 5 mg/kg; settings: in vivo
[28] = AUCinfinity in Sprague-Dawley rat at 5 mg/kg, po; type: ADME, organism-based; design: time infinity, route oral, dose 5 mg/kg; settings: in vivo
[29] = Elimination half life in Sprague-Dawley rat at 5 mg/kg, po; type: ADME, organism-based; settings: in vivo, read-out: beta t1/2 (converted)
[30] = Tlast in Sprague-Dawley rat at 5 mg/kg, po; type: ADME, organism-based; settings: in vivo
[31] = Oral bioavailability in Sprague-Dawley rat at 5 mg/kg; type: ADME, organism-based; settings: in vivo
[32] = test system: Mycobacterium tuberculosis; test: microbe, parasite or virus in culture; settings: H37Rv ATCC 27294, 192 h
[33] = test system: Mycobacterium tuberculosis; test: microbe, parasite or virus in culture; settings: H37Rv ATCC 27294, 192 h; remark: listed apart in the source
[34] = test system: Mycolicibacterium smegmatis; test: Bactericidal activity against Mycobacterium smegmatis mc2155 ATCC 700084 assessed as inhibition of bacterial growth preincubated for 48 hrs followed by agar surface scraped and transfer to GAST medium and measured after 5 days by HT-SPOTi assay; type: functional, organism-based; settings: time 7.0 day

Row | SMILES | MIC90 [1] [µg/mL] | MIC90 [2] [µg/mL] | MIC90 (Mycolicibacterium aurum [3]) [µg/mL] | MIC90 (Mycolicibacterium aurum [4]) [µg/mL] | Activity [6] [%] | Tm [7] [°C] | Tm [8] [°C] | Activity [9] | GI90 (RAW264.7) [µg/mL] | GI90 (THP-1) [µg/mL] | selectivity ratio [10] | selectivity ratio [11] | selectivity ratio [12] | selectivity ratio [13] | selectivity ratio [14] | selectivity ratio [15] | Activity (Mycolicibacterium aurum [16]) [%] | FIC [17] | FIC [18] | Cmax [19] [ng/mL] | further results
1 | Oc1ccccc1C1=NNC(c2ccc(Br)cc2)C1 (stereo not given) | 4 (≈ 12.6 µM) | 64 (≈ 202 µM) | 8 (≈ 25.2 µM) | 128 (≈ 404 µM) | 51.76 | 2 | 2.5 | Active | 128 (≈ 404 µM) | 64 (≈ 202 µM) | 32 | 16 | 8 | 8 | 16 | 16 | 90 | 0.6 | 1.12 | 505 | Activity [5]: Active; AUC(0-t) [20]: 155 ng·h/mL; AUC(0-inf) [21]: 167 ng·h/mL; half-life [22]: 5.42 h; Tlast [23]: 12 h; Vdss [24]: 17.3 kg/L; CLH [25]: 100 mL/min/kg; Cmax [26]: 47.4 ng/mL; AUC(0-t) [27]: 167 ng·h/mL; AUC(0-inf) [28]: 184 ng·h/mL; half-life [29]: 5.32 h; Tlast [30]: 24 h; bioavailability [31]: 22%; MIC90 [32]: 8 µg/mL (≈ 25.2 µM); MIC90 [33]: 128 µg/mL (≈ 404 µM)
2 | Oc1ccccc1C1=NNC(c2ccc(Cl)cc2)C1 (stereo not given) | 4 (≈ 14.7 µM) | 64 (≈ 235 µM) | 16 (≈ 58.7 µM) | 128 (≈ 469 µM) | 54.7 | 2 | 2 | Active | 128 (≈ 469 µM) | 64 (≈ 235 µM) | 32 | 16 | 8 | 8 | 16 | 16 | 90 | 0.6 | 1.12 | 448 | AUC(0-t) [20]: 190 ng·h/mL; AUC(0-inf) [21]: 197 ng·h/mL; half-life [22]: 4.76 h; Tlast [23]: 12 h; Vdss [24]: 11.5 kg/L; CLH [25]: 84.8 mL/min/kg; Cmax [26]: 51.6 ng/mL; AUC(0-t) [27]: 203 ng·h/mL; AUC(0-inf) [28]: 215 ng·h/mL; half-life [29]: 6.06 h; Tlast [30]: 24 h; bioavailability [31]: 21%; Activity [34]: Active; MIC90 [32]: 16 µg/mL (≈ 58.7 µM); MIC90 [33]: 128 µg/mL (≈ 469 µM)

— ChEMBL document CHEMBL5046254, “Mycobactin Analogues with Excellent Pharmacokinetic Profile Demonstrate Potent Antitubercular Specific Activity and Exceptional Efflux Pump Inhibition” (J Med Chem, 2022)
